Measured values taken from patent US20080132481A1, “INTERLEUKIN-4 GENE EXPRESSION INHIBITORS” (AVENTIS PHARMACEUTICALS INC., priority 2002, published 2008).
Each block holds one molecule with its values, some of them ahead of it.

Assays:
ovalbumin specific IgE = assay: OVA induced IgE in mice; type: in vivo, mouse; conditions: serum day 15, 10 mg/kg intraperitoneally once a day from day 6 to day 14, vehicle 150.8
Experimental: Table 10 summarizes effects of 3-(4-pyridinylamino)-1H-indole-2-carboxylic acid on OVA induced IgE in mice. Female mice (5-8 week age, Balb/c, Charles River) were used in this study. Ovalbumin (Sigma) was adsorbed to Aluminum Hydroxide Adsorptive Gel, Inter, and injected 10 μg/0.2 ml/mouse intraperitoneally on experimental day 0 and day 7. Dexamethasone (Sigma) and 3-(4-pyridinylamino)-1H-indole-2-carboxylic acid (Example 28) were in 10% HPCD (Hydroxypropyl-β-Cyclodextrin, Aldrich). Dexamethasone (10 mg/kg), 3-(4-pyridinylamino)-1H-indole-2-carboxylic acid (Example 28) (3 and 10 mg/kg) and 10% HPCD (0.2 ml/mouse) are injected into mice intraperitoneally once a day from day 6 to day 14. They were bled at day 15. Serum ovalbumin specific IgE levels were determined by standard ELISA using a goat anti-mouse IgE antibody labeled with alkaline phosphatase. The anti-OVA titers were determined by malting serial dilutions of the test sera and comparing with vehicle control.

IL-4 = assay: Human primary Th2 cells, IL-4 by ELISA; type: cell-based; conditions: for IL-4 (% control) mean: human Th2 cells, anti-CD3/anti-CD28, 48 hr; for IC50: human primary Th2 cells activated with anti-CD3 and anti-CD28 (Table 5)
Experimental: Briefly, CD4^+CD45RA^+ T cells, isolated from donor peripheral blood mononuclear cells of healthy donors, are educated in the presence of anti-CD3/CD28 antibodies and various growth factors to obtain either a Th1-like or Th2-like phenotypes as determined by the known cytokine profiles of these two cell types.
(§1) Peripheral blood mononuclear cells (PBMC) are prepared from human blood by Ficoll-Hypacque (Pharmacia). The cells are washed two times in Hanks balanced salt solution (HBSS) and counted.
Naïve T cells (CD4^+/CD45RA) are prepared by negative selection method using following antibodies and Dynabeads: anti-CD8, anti-HLA-DR, (where HLA means human leucocyte antigen) anti-CD14, anti-CD16, anti-CD19, anti-CD45RO antibodies (all from R&D Systems, 1-2 μg/ml) are added to the cells, and the cells are kept on ice for 30 min. The cells are washed two times in HBSS, and goat anti-mouse Ig-beads, (bead:target ratio, 5:1) are added. The cells and beads are slowly rotated at 4° C. for 20 min. (following the protocol supplied from Dynal). The supernatant is removed and fresh goat anti-mouse Ig-beads are added to the supernatant, which is slowly rotated at 4° C. for 20 min. The cells are counted and phenotypically characterized by flow cytometric analysis.
Generation of Th1/Th2 cells: Twenty four well plates are coated with 300 μL anti-CD3 Ab (10 μg/ml, in PBS 1-2 h at 37° C. or overnight at 4° C.), and washed two times with PBS. […]/CD45RA^+ cells at a density of 10^6/ml in RPMI, is prepared and added to RPMI medium containing 10% Hyclone serum/glutamine and 1-2 μg/ml anti-CD28 Ab. The cells are split in two aliquots. For Th1 cells: anti-IL-4 Ab (1-2 μg/ml), IFN-γ (1 μg/ml, or 5000 units/ml) are added to the wells. For Th2 cells: IL-4 (100-200 ng/ml), anti-IFN-γ neutralizing Ab (1-2 μg/ml), anti-IL-12 neutralizing Ab (1-2 μg/ml) are added into the wells. The cells are incubated for 2-3 days at 37° C. The cells are transferred to fresh wells and grown in 200 units/ml IL-2 for 2 weeks by feeding them every other day with IL-2 containing medium and splitting the cultures 1:2 or 1:3 as needed. The degree of polarization is determined by intracellular staining of cells with anti-IFN-γ and anti-IL-4 antibodies from Pharmingen, and using flow cytometry from Becton Dickinson (BD), according to manufacturers description. The cells are stimulated with PHA and alloantigens at day 14 and 28 as described below. Eight days after the second allostimulation the cells can be used for compound screening or frozen for future use. For compound testing, large quantities of Th1 and Th2 cells derived from a given donor (NYTh1 and NYTh2) were expanded and frozen as aliquots in liquid nitrogen. The cells are thawed and cultured as and when needed. The thawed cells are stimulated with alloantigen/PHA combination. The cells are used for compound screening after 8-10 days in culture.
Re-stimulation by allogeneic cells: Human PBMCs, to be used as alloantigens, are isolated from freshly drawn blood by Ficoll separation. Cells are resuspended in medium containing 50 μg/ml mitomycin C and incubated for 40 minutes at 37° C. and then washed extensively to remove all of the Mitomycin C. Cells are counted and diluted to a final concentration of 2×10^6/ml in medium containing 10 μg/ml PHA and 200 units/ml IL-2.

Swiss 3T3 fibroblasts = assay: In vitro cytotoxicity assay on contact inhibited 3T3 fibroblasts (MTS); type: cell-based
Experimental: Other toxicity assays may be used.
Any compound killing 3T3 fibroblast cells was omitted from further studies.
Contact inhibited Swiss 3T3 fibroblasts are purchased from ATCC.
All compound dilutions are assayed in triplicate. […] Cells are returned to the incubator for 2 days.
Media is added to blank wells for background calculations.
Note that starting concentration of CsA was 1 μM.

[1] = test system: sheep allergic to Ascaris suum; assay: Sheep asthma model (Ascaris suum antigen challenge); type: in vivo
Experimental: Briefly, transpulmonary pressure, pulmonary resistance (RL), specific lung resistance (SRL airway hyperreactivity, airway responsiveness, are determined.
Venous blood samples (˜5 ml) are obtained from a peripheral leg vein or the jugular vein for pharmacokinetic data. Measurement of Airway Mechanics: The unsedated sheep are restrained in a cart in the prone position with their heads immobilized. After topical anesthesia of the nasal passages with 2% lidocaine solution, a balloon catheter is advanced through one nostril into the lower esophagus. The animals are […] with a cuffed endotracheal tube through the other nostril using a flexible fiberoptic bronchoscope as a guide. (The cuff of the endotracheal tube is inflated only for the measurement of airway mechanics and during aerosol challenges to prevent undue discomfort. This procedure has no effect on airway mechanics). Pleural pressure is estimated with the esophageal balloon catheter (filled with one ml of air) which is positioned 5-10 cm from the gastroesophageal junction. In this position the end expiratory pleural pressure ranges between −2 and −5 cm H20. Once the balloon is placed, it is secured so that it remains in position for the duration of the experiment. Lateral pressure in the trachea is measured with a sidehole catheter (inner dimension, 2.5 mm) advanced through and positioned distal to the tip of the endotracheal tube. Transpulmonary pressure, the difference between tracheal and pleural pressure, is measured with a differential pressure transducer catheter system. […] The signals of flow and transpulmonary pressure is recorded on an oscilloscope recorder which is linked to a computer for on-line calculation of RL from transpulmonary pressure, respiratory volume (obtained by digital integration) and flow. […] Immediately after the measurement of RL, thoracic gas volume (Vtg) is measured in a constant volume body plethysmograph to obtain specific lung resistance (SRL=RL·Vtg) in L×cm H20/LPS. […]

IL-5 = assay: Human primary Th2 cells, IL-5 by ELISA; type: cell-based; conditions: human primary Th2 cells activated with anti-CD3 and anti-CD28 (Table 5)
Description: (§2) The methods described herein permit polarization of primary human peripheral blood cells into Th1 and Th2 cells and generation of sufficiently large quantities of Th1 and Th2 cells, e.g., billions of cells, to allow drug screening. Briefly, CD4^+CD45RA^+ T cells, isolated from donor peripheral blood mononuclear cells of healthy donors, are educated in the presence of anti-CD3/CD28 antibodies and various growth factors to obtain either a Th1-like or Th2-like phenotypes as determined by the known cytokine profiles of these two cell types. Primary human Th1 cells secreted IFN-γ and IL-2 cytokines while primary human Th2 cells secreted IL-4, IL-5, IL-13 and basal amounts of IFN-γ that are measurable by enzyme linked immuno absorption assay (ELISA).
as §1
(§3) Naïve T cells (CD4^+/CD45RA) are prepared by negative selection method using following antibodies and Dynabeads: anti-CD8, anti-HLA-DR, (where HLA means human leucocyte antigen) anti-CD14, anti-CD16, anti-CD19, anti-CD45RO antibodies (all from R&D Systems, 1-2 μg/ml) are added to the cells, and the cells are kept on ice for 30 min. […] The cells are counted and phenotypically characterized by flow cytometric analysis. […]

IL-13 = assay: Human primary Th2 cells, IL-13 by ELISA; type: cell-based; conditions: human primary Th2 cells activated with anti-CD3 and anti-CD28 (Table 5)
Description: as §2, §1, §3

IFN-γ = assay: Human primary Th2 cells, IFN-γ by ELISA; type: cell-based; conditions: human primary Th2 cells activated with anti-CD3 and anti-CD28 (Table 5)
Description: as §2, §1, §3

Human Th2 cells = assay: Human primary Th2 cells, proliferation (MTS viability test); type: cell-based; conditions: human primary Th2 cells activated with anti-CD3 and anti-CD28 (Table 5); read-out: Prolif. IC50
Description: as §2, §1, §3

[2] = 3 mg/kg aerosol 30 min before antigen challenge, 2 sheep per group (FIG. 3A)

SMILES: C[C@@H]1C[C@H]2[C@@H]3CCC4=CC(=O)C=C[C@]4(C)[C@@]3(F)[C@@H](O)C[C@]2(C)[C@@]1(O)C(=O)CO [Dexamethasone]
- Anti-OVA IgE (ovalbumin specific IgE): 27.4

SMILES: O=C(O)c1[nH]c2ccccc2c1Nc1ccncc1 [Example 28, 3-(4-Pyridinylamino)-1H-indole-2-carboxylic acid]
- IL-4 (% control) mean (IL-4; 0.01 μM): 102.15 % control
- IL-4 (% control) mean (IL-4; 0.03 μM): 65.30 % control
- IL-4 (% control) mean (IL-4; 0.1 μM): 59.75 % control
- IL-4 (% control) mean (IL-4; 0.3 μM): 45.00 % control
- IL-4 (% control) mean (IL-4; 1 μM): 42.55 % control
- IL-4 (% control) mean (IL-4; 3 μM): 36.40 % control
- IL-4 (% control) mean (IL-4; 10 μM): 30.80 % control
- toxic effects on quiescent 3T3 cells (in words) (Swiss 3T3 fibroblasts): no toxic effects
- antigen-induced early bronchial response: acute increase in specific lung resistance (SRL) [1, 2]: did not affect
- antigen-induced late bronchial response (SRL) [1, 2]: blocked the late response
- post challenge airway responsiveness (decrease of PC400 after antigen challenge) ([1]; 3 mg/kg, 2 sheep (FIG. 3B)): prevented this effect

- IC50 (IL-4): 0.15 µM
- IC50 (IL-5): > 10 µM
- IC50 (IL-13): > 10 µM
- IC50 (IFN-γ): > 10 µM
SMILES: O=C(O)c1[nH]c2cc(Cl)ccc2c1NC(=O)C1CCNCC1 [Example 82, 3-((4-Piperidineacyl)amino)-6-chloro-1H-indole-2-carboxylic acid]
- IC50 (Human Th2 cells): > 10 µM

- IC50 (IL-4): 1 µM
- IC50 (IL-5): > 10 µM
- IC50 (IL-13): > 10 µM
- IC50 (IFN-γ): > 10 µM
SMILES: CCOC(=O)c1[nH]c2cc(Cl)cc(Cl)c2c1N(C)C(=O)c1ccccc1 [Example 83, 3-((Benzoyl)methylamino)-4,6-dichloro-1H-indole-2-carboxylic acid ethyl ester]
- IC50 (Human Th2 cells): > 10 µM
